Measurements published in US20110059916A1, “Methods and Compositions for Inducing Torpor in a Subject” (priority 2006, published 2011).

Key:
mClps = mClps (procolipase) expression after injection into light-dark mice, Northern blot / RT-PCR; type: in vivo, mouse; settings: for mClps expression in the liver: injected into light-dark mice, Northern blot
Text: Northern blot and RT-PCR analysis: Tissues were collected and frozen in liquid nitrogen and stored at about -80 C. The total RNA was isolated from mouse livers following standard procedures.^31 Twenty micrograms of total RNA was separated by electrophoresis and transferred onto a nylon membrane. The blots were hybridized with ^32P-labeled cDNA probes, washed and exposed to X-ray film as previously described.^30 Colipase probe was the complete cDNA (e.g., Genbank No: BC042935); the Gapdh probe was the Pst I fragment of rat Gapdh cDNA.^32 The primer pair used to measure colipase expression was SEQ ID NO:1 [NT] and SEQ ID NO:2 [NT], The primer pair used to measure Gapdh expression as an internal control was SEQ ID NO:3 [NT] and SEQ ID NO:4 [NT] 720 by probe for mouse pancreatic lipase related protein 2 (mPlrp2) was generated by RT-PCR using oligos LipaseF SEQ ID NO:5 [NT] and […] NO:6 [NT] from liver mRNA.

AMPK = settings: rat muscle, via AMPK; cited from earlier work
[1] = cited from earlier work
[2] = type: in vivo, mouse
Experimental: (§1) They were immediately put into individual 500 ml pre-cooled beakers placed in a chamber at 4° C. […] CBT of the mice was monitored by a digital thermometer (Fisher Scientific, USA, catalog 15-077-8) via a micro stainless steel probe (1 mm) placed 1 cm into the rectal opening of the mouse. Temperature readings were taken at 15-20 sec after insertion of the probe. Once the CBT dropped to 15±1.0° C., mice were then transferred to a regular mouse cage with bedding and kept in an environment chamber at a temperature set at 14±0.5° C. or 15±0.5° C. Mice in SA were visually monitored for arousal. Once arousal was apparent, the animals were returned to standard housing. After 12 h of SA, mice were returned to 20-22° C. AET housing with food and water given ad libitum. For 4 consecutive days after SA, food intakes were determined by weight differential of fresh chow and water after every 24 h at ZT2. Body weight was measured at every ZT2. Respiration rate was determined by placing a mouse inside an open-end 50 ml tube and the number of breaths were determined by counting the number of intakes and exhales over 10 sec intervals.
AET for about 60 min. Markedly different behavioral responses to 4° C. AET were observed. […] In contrast, mice injected with 5′-AMP maintained a relaxed posture and no apparent shivering. […] As CBT dropped below 31° C., the mice retained a considerable cognitive response to tactile stimuli indicating a state of torpor (T). However, when CBT dropped to 18-22° C., the mice lost much of their locomotor mobility but had the ability to reverse flip (RF) to right themselves when they were placed on their backs or sides. When CBT dropped below 17° C., this RF ability was lost and the animals entered a state of SA. When laid on their sides or backs, the mice appeared in a suspended animation state with out-stretched limbs and low respiration rates.
These observations raised questions concerning the relative contribution of 5′-AMP, AET and the CBT in mediating SA. To address these issues, the relationship between 5′-AMP and SA was investigated. […] AET for about 60 min.
AET to await spontaneous arousal.
To identify the driver of SA, the relationship between CBT of mice and the AET was investigated. Once in SA, mice were maintained either at 14±0.5° C. or 15±0.5° C. AET. […] Next, the arousal responses of mice kept at 14±0.5° C. or 15±0.5° C. AET were compared. The majority of mice maintained at 15±0.5° C. AET could spontaneously aroused from SA (FIG. 35b). […] When these mice were subsequently placed at a higher AET, they aroused spontaneously and could enter the S stage. A period of SA longer than 14 h was associated with a decline in the ability of the animal to enter the S stage after arousal by warming. […] The underlying cause(s) of death remains unclear.
Together, the foregoing studies indicate that CBT is a major driver of SA in direct response to a low AET. To obtain additional support for this conclusion, the effects of AET on the recovery rate from SA was investigated. Groups of mice (n=4) in SA with a CBT of about 15° C. were transferred into environments with increasing AET's. The time required for each animal's CBT to return to 37° C. was measured (FIG. 35c). A direct correlation between the increase in AET and the recovery rate from SA was seen. To determine whether there were any long-term negative effects from SA, food intake and body weight were measured for several days as an indirect assessment of health status. Mice (n=4) that exited SA spontaneously were used for these studies.

[3] = Daily injection of 5′-AMP into morbid obese Ob/Ob mice: body weight and food intake; type: in vivo; settings: Ob/Ob mouse, daily injection 5 then 2.5 umol/gbw, compared with saline
Text: This was then decrease to 2.5 umol/gbw for the rest of the studies.

[4] = Blood glucose after 5′-AMP injection; type: in vivo, mouse; settings: injections
[5] = Serum glucose and liver procolipase expression during SA and arousal; type: in vivo, mouse
Experimental: as §1, with “Experimental Procedures. Each mouse was injected intraperitoneally (IP) with the appropriate dosages of 5'-AMP (Sigma catalog# […]) dissolved in phosphate buffered saline. They were” for “They were”, “15±0.5° C. […] CBT. Mice in” for “15±0.5° C. Mice in”, “given ad labitum. For 4” for “given ad libitum. For 4”, “fresh chow every 24” for “fresh chow and water after every 24”, “sec intervals. These studies were carried out under institutionally approved animal protocol HSC-AWC 04-022. Analysis of serum glucose sample from mice at 2-3 h into SA was about 60% higher than control animals with CBT of 37° C. However, the serum blood glucose level drops to 40% below control animals at spontaneous arousal. […] A decline in blood glucose level can be reversed by increasing gluconeogenesis and reduced glucose need of major organs through β-oxidation of fatty acids. […] Liver RNA obtained from mice in normal state, SA, arousal by rewarming and spontaneous arousal was analyzed for procolipase expression by Northern blot analysis. […]” for “sec intervals.”

[6] = Heart rate at high concentrations; type: in vivo
[7] = HPLC analysis of adenylates in blood, liver and muscle during SA; settings: mice in SA given a second injection, red blood cells, 2 hours later
Experimental: HPLC analysis for adenine nucleotides: Blood was rapidly removed from mice and frozen in liquid Nitrogen. Nucleotides were extracted from frozen samples using about 0.4 N perchloric acid as previously described.^35 Briefly, about 425 μl of ice-cold about 0.4 N perchloric acid was added to frozen blood samples and mixed. After about 10 μl was removed for protein determination, the remainder was centrifuged at about 14,000×g for about 10 minutes at about 4° C. The supernatant (e.g., 305 μl) was transferred to a clean tube, neutralized with about 178 μl of about 0.6 M KHCO3/about 0.72 M KOH and acidified with about 55 μl of about 0.18 M ammonium phosphate solution (pH 5.1) and one drop of dilute phosphoric acid. The samples were centrifuged and the supernatants were stored at about −80° C. for analysis. Blood extracts and adenine nucleotides ATP, ADP, AMP, c-AMP and adenosine (e.g., from Sigma, MO, USA) were separated and quantified using reversed-phase HPLC (e.g., Waters, Millipore Corp., Bedford, Mass.) analysis on a Partisphere bonded phase reverse phase C18 cartridge column at a flow rate of 1.5 ml/minutes.^36 The mobile phase was 0.02 M NH4H2PO4, pH 5.1, with a superimposed methanol gradient: about 0% for about 0-4 minutes, about 0-8% for about 4-6 minutes, about 8-20% for about 6-8 minutes, and about 20% for about 8-18 minutes.

[8] = IP, above 0.25 mg/gbw, chamber at 4° C.
[9] = mouse, 4° C. environment for the cooling phase

CCNC(=O)[C@H]1O[C@@H](n2cnc3c(N)ncnc32)[C@H](O)[C@@H]1O [NECA]
mClps expression in the liver (mClps): did not induce colipase expression

NC(=O)c1ncn([C@@H]2O[C@H](CO)[C@@H](O)[C@H]2O)c1N [AICAR, 5-aminoimidazole-4-carboxamide ribonucleoside]
fatty acid oxidation (AMPK): increase fatty acid oxidation

Nc1ncnc2c1ncn2[C@@H]1O[C@H](CO)[C@@H](O)[C@H]1O [adenosine]
mClps expression in the liver (mClps): induced mClps expression | water solubility [1]: very low

Nc1ncnc2c1ncn2[C@@H]1O[C@H](COP(=O)(O)OP(=O)(O)O)[C@@H](O)[C@H]1O [ADP, adenosine 5′-diphosphate]
mClps expression in the liver (mClps): did not induce mClps expression

Nc1ncnc2c1ncn2[C@@H]1O[C@@H]2COP(=O)(O)O[C@H]2[C@H]1O [c-AMP]
mClps expression in the liver (mClps): did not induce mClps expression

Nc1ncnc2c1ncn2[C@@H]1O[C@H](COP(=O)(O)O)[C@@H](O)[C@H]1O [5′-AMP, 5′-adenosine monophosphate]
length of SA as a function of 5′-AMP dose ([2]; 0.25 to 1.5 mg/gbw, maintained at 15±0.5° C. AET until spontaneous arousal): considerable overlap in the arousal time | effective dosage (ED50) that induced at least 50% of the mice to enter SA ([2]; IP, 4° C. AET for about 60 min, CBT reduction to at least 15° C.): 0.125 mg/gbw | CBT reached [2, 8]: 15±1.0 °C | thermo-regulatory responses [2, 8]: blocked all thermo-regulatory responses | time for CBT drop ([2]; IP, above 0.25 mg/gbw, chamber at 4° C., CBT to 15±1.0° C.): 60 ± 10 min | CBT above ambient environmental temperature (AET) during SA ([2]; mice in SA): 1-2 °C | dose that can induce deep torpor ([2]; mouse): 5-7.5 mg/g body weight | ED50 for inducing torpor [2, 9]: approximately 0.15 mg/gram body weight | ED100 for inducing torpor [2, 9]: approximately 0.25 mg/g body weight | body weight after SA ([2]; mouse, in vivo): no significant difference in body weight | food intake after SA ([2]; mouse, in vivo): moderately lower food intake | respiration rate in SA ([2]; normal about 120 breaths per min, CBT below 17° C.): reduced by at least two-thirds | mClps expression in peripheral tissues (mClps; RT-PCR): detected in all peripheral tissues sampled except the brain | mClps expression in the liver (mClps): induced mClps expression | body weight [3]: weight loss | satiety / food intake [3]: lower satiety | blood glucose levels [4]: reduce the blood glucose levels | serum glucose higher than control animals ([5]; 2-3 h into SA, control CBT 37° C.): about 60% | serum blood glucose below control animals ([5]; at spontaneous arousal): 40% | procolipase expression in liver ([5]; mice that had aroused spontaneously, Northern blot): robust level of procolipase expression | heart rate [6]: slows the heart rate | CBT after injection (high dose, from about 37° C., during about the first hour, ambient room temperature 24° C.): about 27 °C | adverse effects on the torpid mice (mouse, in vivo): No apparent adverse effects | length of torpor (various dosages, wild type mice): dependent on the dosage | ATP level after a second injection [7]: steep drop in ATP level

Nc1ncnc2c1ncn2[C@@H]1O[C@H](COP(=O)(O)OP(=O)(O)OP(=O)(O)O)[C@@H](O)[C@H]1O [ATP]
mClps expression in the liver (mClps): did not induce mClps expression
